Read-outs that look alike come from different tables or passages of the source.
Key:
human 5-HT1A receptors = molecular target: T1, human 5-HT1A receptors (Homo sapiens, UniProt P08908); assay: [3H] 8-OH-DPAT displacement from 5-HT1A receptor (CHO cells stably transfected); format: binding; conditions: for inhibition at 1 µM: read-out: 5-HT1A % inhibition at 1 μM, cells marked * in the 5-HT1A column
T1 construct: expressed in transfected cells
T1 sequence (P08908 1-422): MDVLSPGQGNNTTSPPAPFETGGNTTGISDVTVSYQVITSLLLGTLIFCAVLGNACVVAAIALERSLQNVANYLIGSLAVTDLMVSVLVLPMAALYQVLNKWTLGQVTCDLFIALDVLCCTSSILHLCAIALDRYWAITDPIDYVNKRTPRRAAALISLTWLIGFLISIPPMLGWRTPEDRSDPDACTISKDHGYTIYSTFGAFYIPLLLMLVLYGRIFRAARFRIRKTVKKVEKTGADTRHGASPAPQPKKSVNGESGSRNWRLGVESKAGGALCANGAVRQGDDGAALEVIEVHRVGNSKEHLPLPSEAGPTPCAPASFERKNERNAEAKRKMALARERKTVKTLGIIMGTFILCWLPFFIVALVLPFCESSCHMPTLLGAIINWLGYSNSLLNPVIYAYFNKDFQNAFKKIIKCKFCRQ

5-HT transporter = molecular target: T2, 5-HT transporter (Rattus norvegicus, UniProt P31652); assay: Rat Brain 3H-Paroxetine Binding Assay (RB 5HT Transporter)
T2 construct: frontal cortical membranes prepared from male S.D. rats; from tissue; host or cells: frontal cortical membranes of male Sprague-Dawley rats
T2 sequence (P31652 whole entry): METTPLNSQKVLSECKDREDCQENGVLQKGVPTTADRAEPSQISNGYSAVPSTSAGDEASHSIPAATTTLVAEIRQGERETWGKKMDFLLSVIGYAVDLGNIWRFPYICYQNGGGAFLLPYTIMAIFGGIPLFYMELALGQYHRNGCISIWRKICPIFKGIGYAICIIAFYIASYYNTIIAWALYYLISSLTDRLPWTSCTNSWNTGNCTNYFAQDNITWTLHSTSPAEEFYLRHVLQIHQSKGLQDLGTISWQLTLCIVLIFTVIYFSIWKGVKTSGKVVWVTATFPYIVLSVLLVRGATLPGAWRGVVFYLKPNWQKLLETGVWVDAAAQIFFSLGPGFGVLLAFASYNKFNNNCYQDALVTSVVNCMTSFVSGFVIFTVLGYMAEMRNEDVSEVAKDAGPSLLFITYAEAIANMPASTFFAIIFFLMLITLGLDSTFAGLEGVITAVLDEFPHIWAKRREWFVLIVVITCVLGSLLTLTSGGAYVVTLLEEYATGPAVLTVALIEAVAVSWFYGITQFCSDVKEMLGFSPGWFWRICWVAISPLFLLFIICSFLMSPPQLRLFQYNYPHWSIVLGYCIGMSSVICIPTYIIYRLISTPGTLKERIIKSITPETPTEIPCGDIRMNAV
Description: Rat Brain ^3H-Paroxetine Binding Assay (RB 5HT Transporter)
This assay was used to determine a compound's affinity of the 5-HT transporter. […] Briefly, frontal cortical membranes prepared from male S.D. rats were incubated with ^3H-parxetine (0.1 nM) for 60 min. at 25° C. All tubes also contained either vehicle, test compound (one to eight concentrations), or a saturating concentration of fluoxetine (10 μM) to define […]. All reactions are terminated by the addition of ice cold Tris buffer followed by rapid filtration using a Tom Tech filtration device to separate bound from free ^3H-paroxetine.

Human 5-HT Transporter = Human 5-HT Transporter (Homo sapiens, UniProt P31645); assay: cell-based
Chain of Human 5-HT Transporter (P31645 whole entry): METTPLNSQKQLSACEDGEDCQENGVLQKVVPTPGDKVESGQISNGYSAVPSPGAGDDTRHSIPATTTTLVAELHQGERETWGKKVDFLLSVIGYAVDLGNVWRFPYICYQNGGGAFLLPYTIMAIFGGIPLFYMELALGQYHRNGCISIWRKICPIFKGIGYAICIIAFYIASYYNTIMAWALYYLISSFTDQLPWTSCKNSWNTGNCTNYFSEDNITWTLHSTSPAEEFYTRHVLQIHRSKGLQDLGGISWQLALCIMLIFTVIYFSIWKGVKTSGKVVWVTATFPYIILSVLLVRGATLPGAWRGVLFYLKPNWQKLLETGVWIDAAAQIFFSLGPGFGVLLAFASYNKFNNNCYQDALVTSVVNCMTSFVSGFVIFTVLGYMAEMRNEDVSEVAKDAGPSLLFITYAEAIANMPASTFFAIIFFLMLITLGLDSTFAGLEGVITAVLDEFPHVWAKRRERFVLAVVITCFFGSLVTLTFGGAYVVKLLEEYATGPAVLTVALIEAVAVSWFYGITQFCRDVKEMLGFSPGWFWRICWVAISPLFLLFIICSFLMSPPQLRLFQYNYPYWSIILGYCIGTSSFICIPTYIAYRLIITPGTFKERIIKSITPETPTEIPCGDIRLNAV
Description: On the day of assay, vehicle, excess of fluoxetine, or test compound is added to various wells on the plate. All wells then receive ^3H-5-HT and are incubated at 37° C. for 5 min. The wells are then washed with ice cold 50 mM Tris HCl (pH 7.4) buffer and aspirated to remove free ^3H-5-HT. 25 μl of 0.25 M NaOH is then added to each well to lyse the cells and 75 μl scintillation cocktail (Microscint™ 20) added prior to quantitation on a Packard TopCount machine. Tubes with vehicle represent total possible uptake, radioactivity counted in tubes with fluoxetine represent nonspecific binding/uptake and is subtracted from the total possible uptake to give total possible specific uptake. […] Specific uptake is then expressed as a % of control values and is analyzed using nonlinear regression analysis (Prizm) to determine IC50 values.

[1] = rat frontal cortical membranes, 3H-paroxetine 0.1 nM, read-out: RB-5HT Transporter Ki

Row | SMILES | inhibition at 1 µM (human 5-HT1A receptors) [%] | Ki (5-HT transporter; [1]) [nM] | Ki (Human 5-HT Transporter) [nM] | Ki (5-HT transporter) [nM] | Ki (human 5-HT1A receptors) [nM] | melting point [°C] | Ki (human 5-HT1A receptors; [3H] 8-OH-DPAT displacement, CHO cells with human 5-HT1A, read-out: 5-HT1A Ki) [nM]
1 | c1ccc2c(c1)ccc1c(CCN3CCC(c4c[nH]c5ccccc45)CC3)coc12 [Compound 34, 3-{1-(2-Naphtho[1,2-b]furan-3-yl-ethyl)-piperidin-4-yl]-1H-indole] | 48 | 62 | 276 |  |  |  | 
2 | Clc1ccc2scc(CCN3CC=C(c4c[nH]c5ccccc45)CC3)c2c1 [Compound 31, 3-{1-[2-(5-chloro-1-benzothiophene-3-yl)ethyl]-1,2,3,6-tetrahydro-4-pyridinyl}-1H-indole] | 29 | 172 | 2900 |  |  |  | 
3 | Clc1ccc2occ(CCN3CC=C(c4cnc5ccccn45)CC3)c2c1 [Compound 44, 3-{1-[2-(5-chloro-1-benzofuran-3-yl)ethyl]-1,2,3,6-tetrahydropyridin-4-yl}imidazo[1,2-a]pyridine] | 44 |  | 63.8 | 97 |  |  | 
4 | COc1cccc2c(CC(C)N3CC=C(c4c[nH]c5ccccc45)CC3)coc12 (centres unmarked) [Compound 41, 3-{1-[2-(7-methoxy-1-benzofuran-3-yl)-1-methylethyl]-1,2,3,6-tetrahydro-4-pyridinyl}-1H-indole] |  |  | 68.8 | 8.93 | 11.5 |  | 
5 | Cn1cc(C2=CCN(CCc3csc4ccccc34)CC2)c2ccccc21 [Compound 30, 3-{1-[2-(1-benzothiophene-3-yl)ethyl]-1,2,3,6-tetrahydro-4-pyridinyl}-1-methyl-1H-indole] |  |  | 421 | 13 | 53.1 |  | 
6 | COc1ccc2c(CCN3CC=C(c4c[nH]c5cc(C#N)ccc45)CC3)coc2c1 [Compound 13, 3-{1-[2-(6-methoxy-1-benzofuran-3-yl)ethyl]-1,2,3,6-tetrahydro-4-pyridinyl}-6-cyano-1H-indole] |  |  | 34.1 | 3.36 | 12.7 | 181 | 
7 | C=CCn1cc(C2=CCN(CCc3csc4ccc(Cl)cc34)CC2)c2ccccc21 [Compound 32, 3-{1-[2-(5-chloro-1-benzothiophene-3-yl)ethyl]-1,2,3,6-tetrahydro-4-pyridinyl}-1-(2-propenyl)-1H-indole] | 34 | 132 |  |  |  |  | 
8 | COc1cccc2c(CC(C)N3CC=C(c4c[nH]c5cc(F)ccc45)CC3)coc12 (centres unmarked) [Compound 42, 3-{1-[2-(7-methoxy-1-benzofuran-3-yl)-1-methylethyl]-1,2,3,6-tetrahydro-4-pyridinyl}-6-fluoro-1H-indole] |  |  | 48.7 | 3.74 | 69.4 |  | 
9 | Cn1cc(C2=CCN(CCc3csc4ccc(Cl)cc34)CC2)c2ccccc21 [Compound 33, 3-{1-[2-(5-chloro-1-benzothiophene-3-yl)ethyl]-1,2,3,6-tetrahydro-4-pyridinyl}-1-methyl-1H-indole] | 45 |  |  | 39 |  |  | 
10 | CC(CN1CC=C(c2c[nH]c3ccc(F)cc23)CC1)c1coc2ccccc12 (centres unmarked) [Compound 37, 3-{1-[2-(1-benzofuran-3-yl)propyl]-1,2,3,6-tetrahydro-4-pyridinyl}-5-fluoro-1H-indole] | 20 |  | 152 | 21 |  |  | 
11 | Cn1cc(C2=CCN(CCc3coc4ccccc34)CC2)c2ccccc21 [Compound 2, 3-{1-[2-(1-benzofuran-3-yl)ethyl]-1,2,3,6-tetrahydro-4-pyridinyl}-1-methyl-1H-indole] |  |  |  | 6 | 18.3 |  | 
12 | COc1ccc2occ(CC(C)N3CC=C(c4c[nH]c5ccccc45)CC3)c2c1 (centres unmarked) [Compound 43, 3-{1-[2-(5-methoxy-1-benzofuran-3-yl)-1-methylethyl]-1,2,3,6-tetrahydro-4-pyridinyl}-1H-indole] | 34 |  | 144 | 12 |  |  | 
13 | C1=C(c2c[nH]c3ccccc23)CCN(CCc2csc3ccccc23)C1 [Compound 28, 3-{1-[2-(1-benzothiophene-3-yl)ethyl]-1,2,3,6-tetrahydro-4-pyridinyl}-1H-indole] |  |  | 11.1 | 6.25 | 67.9 | 195 to 198 | 
14 | CC(CN1CC=C(c2c[nH]c3ccccc23)CC1)c1coc2ccccc12 (centres unmarked) [Compound 35, 3-{1-[2-(1-benzofuran-3-yl)propyl]-1,2,3,6-tetrahydro-4-pyridinyl}-1H-indole] | 28 |  | 130 | 16 |  |  | 
15 | C=CCn1cc(C2=CCN(CCc3csc4ccccc34)CC2)c2ccccc21 [Compound 29, 3-{1-[2-(1-benzothiophene-3-yl)ethyl]-1,2,3,6-tetrahydro-4-pyridinyl}-1-(2-propenyl)-1H-indole] |  | 104 | 1120 |  |  |  | 243
16 | CC(CN1CC=C(c2c[nH]c3cc(F)ccc23)CC1)c1coc2ccccc12 (centres unmarked) [Compound 36, 3-{1-[2-(1-benzofuran-3-yl)propyl]-1,2,3,6-tetrahydro-4-pyridinyl}-6-fluoro-1H-indole] | 11 |  | 42 | 4.43 |  |  | 
